Measured values: ChEMBL document CHEMBL1201862, “PubChem BioAssay data set” (2004)
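Test compounds were applied to cells in 96-well plates for 48 hours at 5 doses. GI50 marks 50% less growth.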 The source made the active and inactive calls. Cut-off read from the data, not from the text of the source: active = GI50 up to about 1.1 µM and inactive = higher.

What was measured:
Assay in all cases: NCI tumour cell line growth inhibition, 48 h
[1] = system: SF-295
[2] = system: SF-268
[3] = system: HCT-116
[4] = system: NCI-H522
[5] = system: K562
[6] = system: COLO 205
[7] = system: HT-29
[8] = system: HOP-62
[9] = system: NCI-H460
[10] = system: RXF 393
[11] = system: SF-539
[12] = system: UACC-62
[13] = system: SW-620
[14] = system: HCT-15
[15] = system: SR
[16] = system: A498
[17] = system: SNB-19
[18] = system: MOLT-4
[19] = system: MDA-MB-435
[20] = system: MCF7

Row | SMILES | GI50 [1] | GI50 [2] | GI50 [3] | GI50 [4] | GI50 [5] | GI50 [6] | GI50 [7] | GI50 [8] | GI50 [9] | GI50 [10] | GI50 [11] | GI50 [12] | GI50 [13] | GI50 [14] | GI50 [15] | GI50 [16] | GI50 [17] | GI50 [18] | GI50 [19] | GI50 [20]
1 | COc1ccc(-c2oc3c(OC)c(OC)c(OC)c(O)c3c(=O)c2OC)cc1O | 0.478 µM (active) | 0.0859 µM (active) | 0.0783 µM (active) | < 0.01 µM (active) | < 0.01 µM (active) | 11.1 µM (inactive) | 8.87 µM (inactive) | 0.403 µM (active) | 0.126 µM (active) | 0.0559 µM (active) | 0.0327 µM (active) | 0.0481 µM (active) | 0.038 µM (active) | 0.35 µM | 0.0702 µM (active) | 1.6 µM (inactive) | 0.347 µM (active) | 0.0989 µM (active) |  | 
2 | CN(C)C(=S)N1C(=S)N(c2ccccc2)C(=N/c2ccccc2)/C1=N\c1ccccc1 | > 100 µM (inactive) | > 100 µM (inactive) | > 100 µM (inactive) | 6.82 µM (inactive) | > 100 µM (inactive) | > 100 µM (inactive) | > 100 µM (inactive) | > 100 µM (inactive) | > 100 µM (inactive) | > 100 µM (inactive) | > 100 µM (inactive) | > 100 µM (inactive) | > 100 µM (inactive) | > 100 µM | > 100 µM (inactive) | > 100 µM (inactive) | > 100 µM (inactive) | > 100 µM (inactive) | > 100 µM (inactive) | 
3 | O=C(O)CC(NC(=O)/C(=C/c1ccccc1)NC(=O)c1ccccc1)C(=O)O (stereo not drawn) | > 100 µM (inactive) | > 100 µM (inactive) | > 100 µM (inactive) | > 100 µM (inactive) | > 100 µM (inactive) | > 100 µM (inactive) | > 100 µM (inactive) | > 100 µM (inactive) | > 100 µM (inactive) | > 100 µM (inactive) | > 100 µM (inactive) | > 100 µM (inactive) | > 100 µM (inactive) | > 100 µM |  | > 100 µM (inactive) | > 100 µM (inactive) | > 100 µM (inactive) | > 100 µM (inactive) | > 100 µM (inactive)
4 | COc1cc(C2c3cc4c(cc3OC(NN)C2C)OCO4)cc(OC)c1O (stereo not drawn) | 3.85 µM (inactive) | 28.3 µM (inactive) | 4.63 µM (inactive) | 5.96 µM (inactive) | 3.08 µM (inactive) | 15.2 µM (inactive) | 6.22 µM (inactive) |  |  | 15.3 µM (inactive) | 11.9 µM (inactive) | 4.92 µM (inactive) | 4.73 µM (inactive) | 3.72 µM |  |  | 32.5 µM (inactive) |  | 2.32 µM (inactive) | 8.09 µM (inactive)
5 | CC1CCC(C(C)C2C(O)CC3C4CC=C5CC(O)CCC5(C)C4CCC32C)NC1 (stereo not drawn) |  | > 100 µM (inactive) | 45.3 µM (inactive) | 63 µM (inactive) | 39.2 µM (inactive) | > 100 µM (inactive) | 43.1 µM (inactive) | 27.7 µM (inactive) | 48 µM (inactive) | 65 µM (inactive) | 34.2 µM (inactive) | 49.5 µM (inactive) | 31.7 µM (inactive) | 44 µM |  | > 100 µM (inactive) | 25.7 µM (inactive) | 8.38 µM (inactive) | 30.9 µM (inactive) | 39.4 µM (inactive)
6 | COc1cc(C2C3=C(CCCC3=O)N(c3ccc(C)cc3)C3=C2C(=O)CCC3)c([N+](=O)[O-])cc1OC |  | 97.5 µM (inactive) |  |  | 79.3 µM (inactive) |  | 59.4 µM (inactive) |  | > 100 µM (inactive) | 30 µM (inactive) | 61.1 µM (inactive) | 90.4 µM (inactive) | > 100 µM (inactive) | 68.1 µM | 54.2 µM (inactive) | > 100 µM (inactive) | > 100 µM (inactive) | 24.2 µM (inactive) |  | 39.4 µM (inactive)
7 | O=C1NC2(CCCC2)C2CCCCC12O (stereo not drawn) | > 100 µM (inactive) | > 100 µM (inactive) | > 100 µM (inactive) | > 100 µM (inactive) | > 100 µM (inactive) | > 100 µM (inactive) | > 100 µM (inactive) | > 100 µM (inactive) | > 100 µM (inactive) | > 100 µM (inactive) | > 100 µM (inactive) | > 100 µM (inactive) | > 100 µM (inactive) | > 100 µM | > 100 µM (inactive) | > 100 µM (inactive) | > 100 µM (inactive) | > 100 µM (inactive) |  | 
8 | N#Cc1c(-c2ccccc2)[nH]c(=O)n(C2OC(CO)C(O)C(O)C2O)c1=O (stereo not drawn) | > 100 µM (inactive) | > 100 µM (inactive) | > 100 µM (inactive) |  | > 100 µM (inactive) | > 100 µM (inactive) | > 100 µM (inactive) | > 100 µM (inactive) | > 100 µM (inactive) | > 100 µM (inactive) | > 100 µM (inactive) | > 100 µM (inactive) | > 100 µM (inactive) | > 100 µM |  | > 100 µM (inactive) | > 100 µM (inactive) | > 100 µM (inactive) | > 100 µM (inactive) | > 100 µM (inactive)
9 | O=C1CCC[C@]2(CCCC(=O)N2)C1 | > 100 µM (inactive) | > 100 µM (inactive) | > 100 µM (inactive) | > 100 µM (inactive) | > 100 µM (inactive) | > 100 µM (inactive) | > 100 µM (inactive) | > 100 µM (inactive) | > 100 µM (inactive) | > 100 µM (inactive) | > 100 µM (inactive) | > 100 µM (inactive) | > 100 µM (inactive) | > 100 µM | > 100 µM (inactive) | > 100 µM (inactive) | > 100 µM (inactive) | > 100 µM (inactive) |  | 
10 | O=C1NC(=S)NC(=O)C1=Cc1ccc([N+](=O)[O-])o1 | 78.3 µM (inactive) | 39.8 µM (inactive) | 15 µM (inactive) | 19.9 µM (inactive) | 23.9 µM (inactive) | 20.2 µM (inactive) | 23.2 µM (inactive) | > 100 µM (inactive) | > 100 µM (inactive) | 19.3 µM (inactive) | 22.9 µM (inactive) | 19.4 µM (inactive) | 23 µM (inactive) | 17 µM | 19.6 µM (inactive) | > 100 µM (inactive) | > 100 µM (inactive) | 19.7 µM (inactive) |  | 
11 | CCCCCCCCCCCCCCCC(=O)Nc1ccn(C2CCC(COP(=O)(O)OCC3OC(n4cc(F)c(=O)[nH]c4=O)CC3OC(C)=O)O2)c(=O)n1 (stereo not drawn) | 6.71 µM (inactive) | 1.45 µM (inactive) | 8.04 µM (inactive) | 12.3 µM (inactive) | 6.15 µM (inactive) | 13.1 µM (inactive) | 11.2 µM (inactive) | 5.06 µM (inactive) | 0.531 µM (active) | 22.4 µM (inactive) | 1.03 µM (active) | 10.7 µM (inactive) | 16.9 µM (inactive) | 24.9 µM |  | 11.3 µM (inactive) | 3.66 µM (inactive) | 9.31 µM (inactive) | 15.5 µM (inactive) | 2.28 µM (inactive)
12 | CC/C=N\N1C(N)=C(C#N)C(C#N)(C#N)C1CC (stereo not drawn) | > 100 µM (inactive) | > 100 µM (inactive) | 10.8 µM (inactive) | > 100 µM (inactive) | 52.7 µM (inactive) | > 100 µM (inactive) | 28.8 µM (inactive) | > 100 µM (inactive) |  | > 100 µM (inactive) | 26.2 µM (inactive) | 59.4 µM (inactive) | 61.7 µM (inactive) | 54.2 µM |  | > 100 µM (inactive) | > 100 µM (inactive) | 39 µM (inactive) | 50.6 µM (inactive) | 36.5 µM (inactive)
13 | O=C(O)Cc1cc(O)c(CC(=O)O)cc1O | > 100 µM (inactive) | > 100 µM (inactive) | > 100 µM (inactive) | > 100 µM (inactive) | > 100 µM (inactive) |  | > 100 µM (inactive) | > 100 µM (inactive) | > 100 µM (inactive) | > 100 µM (inactive) |  | > 100 µM (inactive) | > 100 µM (inactive) | > 100 µM | > 100 µM (inactive) | > 100 µM (inactive) | > 100 µM (inactive) | > 100 µM (inactive) | > 100 µM (inactive) | 
14 | CC1(C)CC(O)C(C)(C)[C@@H](O)C1 (stereo partly drawn) | > 100 µM (inactive) | > 100 µM (inactive) | > 100 µM (inactive) | > 100 µM (inactive) | > 100 µM (inactive) | > 100 µM (inactive) | > 100 µM (inactive) | > 100 µM (inactive) | > 100 µM (inactive) | 28.7 µM (inactive) | > 100 µM (inactive) | > 100 µM (inactive) | > 100 µM (inactive) | > 100 µM |  |  | > 100 µM (inactive) | > 100 µM (inactive) |  | > 100 µM (inactive)
15 | CC1=C(N2CC2)C(=O)c2nc3n(c2C1=O)CCC3O (stereo not drawn) | 0.166 µM (active) | 0.104 µM (active) | 0.193 µM (active) | 0.145 µM (active) | 0.472 µM (active) | 0.41 µM (active) | 0.973 µM (active) | 0.126 µM (active) | 0.092 µM (active) | 0.187 µM (active) | 0.254 µM (active) | 0.168 µM (active) | 0.153 µM (active) | 13.6 µM | 2.25 µM (inactive) | 0.205 µM (active) | 0.269 µM (active) | 0.912 µM (active) | 0.0188 µM (active) | 
16 | COc1ccc(/C=C2\CN(C)CC3C2=NN(c2ccccc2)C3c2ccc(OC)cc2)cc1 (stereo not drawn) | 62.2 µM (inactive) | > 100 µM (inactive) | > 100 µM (inactive) | 72.9 µM (inactive) | > 100 µM (inactive) | > 100 µM (inactive) | > 100 µM (inactive) | 38 µM (inactive) | > 100 µM (inactive) | 13 µM (inactive) |  | 75 µM (inactive) | > 100 µM (inactive) | > 100 µM |  | 33.8 µM (inactive) | 27.2 µM (inactive) | > 100 µM (inactive) | > 100 µM (inactive) | > 100 µM (inactive)
